Measurements as given in patent US5985856A, “Water soluble prodrugs of secondary and tertiary amine containing drugs and methods of making thereof” (University of Kansas, priority 1998, dated 1999).
Converted amounts (≈) assume the structure as drawn. Where two headings read alike, the source gives them in different places.

Key:
[1] = in vivo; conditions: dog, iv
Method: (§1) Cinnarizine for i.v. injection was prepared in a 10 mM phosphate buffer solution at pH 4.5 at a concentration of 12.5 mg/10 ml (3.39 mM) along with 37.5 mM sulfobutylether 4 beta-cyclodextrin as a solubilizing excipient. The cyclodextrin solution (10 ml) was prepared first and the pH adjusted to 3.5 with HCl. The cinnarizine was then added and the solution was sonicated for three hours and subsequently stirred overnight. The pH was then adjusted to 4.5 with NaOH along with the addition of 29 mg of NaCl to adjust for isotonicity. The solution was then passed through a 0.22 μM nylon-membrane filter just prior to administration. The prodrug injection was prepared by dissolving 16.97 mg or cinnarizine prodrug in 10 ml of 0.9% NaCl sterile solution (3.39 mM) for injection. The solution was passed through a 0.22 μM nylon-membrane filter just prior to injection.
(§2) The evaluation of the cinnarizine plasma concentration versus time was conducted with a male beagle dog weighing 11.1 kg. The dog received the cinnarizine injection followed by a two-week washout period then received the prodrug injection in an equal molar quantity. Samples were taken from the dog prior to dosing (10 ml blank plasma) and 2, 6, 10, 20, 40 min and 1, 2, 4, 6, 8, 24 hours post-dosing (3 ml each). Blood samples were drawn from either cephalic, saphenous, or jugular vein. The samples were centrifuged for 10 minutes and 1 ml of plasma was measured and frozen at -20° C. prior to sampling by HPLC. The dog received a regular diet between experiments and was fasted the day of the experiment.
(§3) Plasma concentrations of cinnarizine were determined by HPLC with fluorescence detection. To each one milliliter of plasma was added: 100 μL of acetonitrile-H2O (70:30, v/v), containing 40 μg meclizine (internal standard), and 100 μL of 0.5 M HCl. The plasma sample was then vortexed for 30 seconds. One ml of carbon tetrachloride was then combined with the sample for an additional one minute of vortexing. Samples were then centrifuged for ten minutes after which the carbon tetrachloride was removed and evaporated to dryness under a stream of dry nitrogen. The residue was then redissolved in 200 μL of acetonitrile-H2 O (70:30, v/v) prior to sampling by HPLC. The results were calculated from peak area ratios. A six-point standard curve was obtained using the above procedure with addition of cinnarizine concentrations in the range of 5.5 to 550 ng/ml of plasma. A three-point calibration was performed on the day of the study using high, medium and low cinnarizine concentrations. This calibration was used for the quantification of cinnarizine concentration in the samples.
(§4) The HPLC system consisted of a Shimadzu LC-6A pump (Kyoto, Japan), a Rheodyne 7125 injector (Cotati, Calif.), a Shimadzu RF-535 Fluorescence HPLC monitor (Kyoto, Japan), and a Shimadzu CR-601 integrator (Kyoto, Japan). The HPLC conditions were as follows: injection volume, 50 μL; flow rate, 1.5 ml/min; excitation at 260 nm and emission at 315 nm. The stationary phase was a C18 ODS Hypersil reverse phase column (15 cm×4.6 mm i.d., 5 μM). The mobile phase was a 7 to 3 ratio of aceronitrile to buffer, respectively. The buffer consisted of 25 mmole potassium dihydrogen phosphate (adjusted to pH 3.9 with phosphoric acid) and 10 mM tetrabutyl ammonium dihydrogen phosphate.
(§5) Pharmacokinetic analysis was performed on the semilogarithmic plot of cinnarizine plasma concentration versus time post dosing for both the cinnarizine and cinnarizine prodrug injections. […] The equation had the form: C=A1e^-A1t +A2e^-A2t +A3e^-A3t, where t is time. Plasma terminal half life (t1/2) is calculated from t1/2 =0.693/λ3.

[2] = Pharmacokinetic evaluation of cinnarizine plasma concentration after i.v. injection; conditions: male beagle dog
Method: as §1, §2, §3, §4, §5

[3] = physchem; type: physicochemical
Method: Loxamine succinate is obtained from Research Biochemicals Incorporated (Natick, Mass.). […] Each pH solution is a 0.05 M buffered solution with an ionic strength adjusted to μ=0.2 with NaCl. The pH values along with their buffer composition are listed: pH 3.24, HCl/CH3 COONa; pH 3.96 and 4.96, CH3 COOH/CH3 COONa; pH 5.82-7.94, NaH2 PO4 /Na2 HPO4; pH 8.95 and 9.98, H3 BO3 /NaOH. The volume of buffer used in the experiments varies; samples with pH equal to or below 4.96 utilize 2 ml of buffer whereas the higher pH samples has a volume of 5 ml. […] The vials are then capped, sonicated and vortexed prior to submersion in a constant temperature shaking water bath at 25° C. The samples are shaken at a rate of 100 shakes/min. for at least 24 hours. […] The filtrates/supernatants are then appropriately diluted for quantification by HPLC. […] A C-18 reversed phase column (150×4 mm, ODS Hypersil, 5 μm particle size) is used for the analysis. The HPLC assays are carried out using UV detection at 254 nm. The mobile phase consists of acetonitrile and 25 mM of aqueous potassium phosphate monobasic solution adjusted to pH 3.8 with phosphoric acid. 0.15% of triethylamine is contained in the aqueous buffer.

[4] = Preliminary visual solubility estimates of synthesized prodrugs; type: physicochemical; conditions: preliminary visual estimate, pH 7.4
Text: The present prodrugs are designed to increase the aqueous solubility and safety of amine-containing drugs. Preliminary visual solubility estimates for each of the prodrugs are listed below in Table 2.

[5] = dog, in vivo
Method: as §1, §2, §3, §4, §5

[6] = pKa determination by 31P NMR method; conditions: 10% d2o in h2o
[7] = physchem; type: physicochemical; conditions: for solubility: 24 h
Method: Each pH solution contains 0.05 M buffer with an ionic strength adjusted to μ=0.2 with NaCl. The pH 3 buffer composition is HCl/CH3 COONa; whereas, the pH 7.4 buffer composition is NaH2 PO4 /Na2 HPO4. The volume of buffer used in the experiments is 150 μl. To this is added excess of the loxapine prodrug in one ml glass screw top vials. The vials are then capped, sonicated and vortexed prior to submersion in a constant temperature shaking water bath at 25° C. The samples are shaken at a rate of 100 shakes/min. for at least 24 hours. The suspensions are then placed in a micro centrifuge to precipitate the excess drug. A volume of 50 μl of the supernatant is then appropriately diluted with water for quantification by reverse phase HPLC. […] A C-18 reversed phase column (150×4 mm, ODS Hypersil, 5 μm particle size) is used for the analysis. The HPLC assays are carried out using UV detection at 254 nm. The mobile phase consists of acetonitrile and 25 mM of aqueous potassium phosphate monobasic solution adjusted to pH 3.8 with phosphoric acid. 0.15% of triethylamine is contained in the aqueous buffer. The ratio of organic:aqueous is 32:68. The retention time is 4.2 min. when the flow rate is adjusted to 1 ml/min.

[8] = physchem; conditions: 10% d2o in h2o
[9] = physchem; type: physicochemical; conditions: water
Method: A 0.01 M quinuclidine prodrug aqueous solution is titrated using a burette containing a 0.1 N sodium hydroxide volumetric standard solution obtained from Aldrich Chemical Company (Milwaukee, Wis.). […] This experiment is conducted at 25° C.
The first ionization constant, Ka1, is expected to be low and to be of little physiological importance; however, Ka2 is of much greater importance. With this in mind, the second ionization constant (Ka2) for the phosphate monoester promoiety of the quinuclidine was determined by two methods. These methods were potentiometric titration and ^31 P NMR. The potentiometric titration is by far the most traditional and accepted means for estimating pKa values; however, it has one main disadvantage. It requires significant quantities of, difficult to synthesize, prodrug. The quinuclidine prodrug is, by far, the simplest prodrug to synthesize and was chosen for the following experiments for that reason. For the potentiometric titration method, the volume of base added was plotted against the change in pH. This plot allows one to determine the volume of base required to reach the endpoint of the titration.

[10] = 0.05 m hcl/ch3coona buffer, pH 3
[11] = 0.05 m nah2po4/na2hpo4 buffer, pH 7.4

C(=C\c1ccccc1)/CN1CCN(C(c2ccccc2)c2ccccc2)CC1 [Cinnarizine]
Vd [1]: 21.7 L/kg
clearance [1]: 19.5 mL/min/kg
half-life [1]: 12 h
observable signs of discomfort or toxicity after injection [2]: no observable signs of discomfort or toxicity

CN1CCN(C2=Nc3ccccc3Oc3ccc(Cl)cc32)CC1 [Loxapine free base, Loxapine]
solubility ([3]; 0.05 m buffer, aqueous buffer): 0.0126 mg/mL (≈ 0.0384 mM)
solubility ([3]; hcl/ch3coona buffer, pH 3.24): 8.23 mg/mL (≈ 25.1 mM)

CCCCc1oc2ccccc2c1C(=O)c1cc(I)c(OCC[N+](CC)(CC)COP(=O)([O-])O)c(I)c1 [amiodarone prodrug]
solubility [4]: > 5 mg/mL

O=P([O-])(O)OC[N+]1(C/C=C/c2ccccc2)CCN(C(c2ccccc2)c2ccccc2)CC1 [cinnarizine prodrug]
conversion of prodrug to cinnarizine upon intravenous administration [5]: rapidly and quantitatively converted to cinnarizine
Cl ([5]; iv): 19.5 mL/min/kg
Vd ([5]; iv): 21.2 L/kg
t1/2 (plasma terminal half life of cinnarizine) ([5]; iv): 12.6 h
solubility [4]: > 5 mg/mL
observable signs of discomfort or toxicity after injection [2]: no observable signs of discomfort or toxicity

C[N+]1(COP(=O)([O-])O)CCN(C2=Nc3ccccc3Oc3ccc(Cl)cc32)CC1 [loxapine prodrug]
pKa [6]: 4.7
solubility [7, 10]: 290.5 ± 2.9 mg/mL (≈ 664 mM)
solubility at 24 h [7, 10]: 290.5 ± 2.9 mg/mL (≈ 664 mM)
solubility [7, 11]: 648.2 ± 0.6 mg/mL (≈ 1480 mM)
solubility at 24 h [7, 11]: 648.2 ± 0.6 mg/mL (≈ 1480 mM)
solubility limit relative to the concentration used in the parenteral formulation (50 mg/ml loxapine) ([7]; without cosolvents): 9.7 times
solubility [4]: > 600 mg/mL

O=P([O-])(O)OC[N+]12CCC(CC1)CC2 [quinuclidine prodrug]
pKa [8]: 4.9
pKa [9]: 5
